# Reference: patent US20140005163A1 (NOVARTIS AG, priority 2010, published 2014)
# Target: T1, PI3K gamma (Homo sapiens, UniProt P48736)
# T1 construct: His tag (C); made in house; host or cells: baculovirus (pVL1393); Tn5 or TiniPro insect cells; construct from Roger Williams lab, MRC LMB
# Assay: PI3K gamma kinase assay (Kinase-Glo luminescence)
# Format: biochemical
# Conditions: not given
# Method in brief: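 PI3Kγ (150 nM) reaction run 120 min at room temperature with phosphatidylinositol substrate (10 μg/mL) and ATP (1 μM) in Tris pH 7.5 buffer containing MgCl2, NaCl, CHAPS and DTT. Remaining ATP detected by Kinase-Glo luminescence; 8 concentrations per compound, IC50 from 4-parameter curve fitting.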
# T1 sequence (P48736 144-1102 limits assumed): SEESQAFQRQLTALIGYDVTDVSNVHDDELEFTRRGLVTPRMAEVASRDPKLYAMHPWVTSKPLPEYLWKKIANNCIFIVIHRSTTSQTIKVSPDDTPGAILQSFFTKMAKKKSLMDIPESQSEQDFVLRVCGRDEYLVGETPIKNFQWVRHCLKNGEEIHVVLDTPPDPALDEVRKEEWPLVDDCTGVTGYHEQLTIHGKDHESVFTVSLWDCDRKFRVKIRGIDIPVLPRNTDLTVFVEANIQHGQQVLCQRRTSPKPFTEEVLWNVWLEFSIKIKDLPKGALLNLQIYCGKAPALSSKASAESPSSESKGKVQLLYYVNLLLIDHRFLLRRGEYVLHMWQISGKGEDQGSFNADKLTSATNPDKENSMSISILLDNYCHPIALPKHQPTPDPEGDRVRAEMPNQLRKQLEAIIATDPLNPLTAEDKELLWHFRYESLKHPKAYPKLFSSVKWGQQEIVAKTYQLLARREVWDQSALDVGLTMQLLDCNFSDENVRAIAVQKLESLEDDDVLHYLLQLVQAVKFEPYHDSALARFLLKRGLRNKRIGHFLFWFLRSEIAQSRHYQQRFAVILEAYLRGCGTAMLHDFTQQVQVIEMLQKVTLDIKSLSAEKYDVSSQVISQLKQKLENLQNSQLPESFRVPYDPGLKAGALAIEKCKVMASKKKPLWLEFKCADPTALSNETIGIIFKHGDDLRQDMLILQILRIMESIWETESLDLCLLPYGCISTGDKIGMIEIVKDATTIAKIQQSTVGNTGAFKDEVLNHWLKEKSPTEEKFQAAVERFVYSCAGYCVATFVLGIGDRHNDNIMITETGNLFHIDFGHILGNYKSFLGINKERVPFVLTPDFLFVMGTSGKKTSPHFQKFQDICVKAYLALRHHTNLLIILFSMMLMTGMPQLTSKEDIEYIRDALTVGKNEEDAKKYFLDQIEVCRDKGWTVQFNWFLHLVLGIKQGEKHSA
row,IC50 [nM],SMILES
1,73,"Cc1nn(C)cc1-n1c(=O)n(C)c2cnc3ccc(-c4cncc(S(C)(=O)=O)c4)cc3c21 [Example 22, 1-(1,3-Dimethyl-1H-pyrazol-4-yl)-8-(5-methanesulfonyl-pyridin-3-yl)-3-methyl-1,3-dihydro-imidazo[4,5-c]quinolin-2-one]"
2,471,"Cc1nn(C(C)C)cc1-n1c(=O)n(C)c2cnc3ccc(-c4ccc(C(N)=O)nc4)cc3c21 [Example 112, 5-[1-(1-Isopropyl-3-methyl-1H-pyrazol-4-yl)-3-methyl-2-oxo-2,3-dihydro-1H-imidazo[4,5-c]quinolin-8-yl]-pyridine-2-carboxylic acid amide]"
3,777,"Cc1nn(C)cc1-n1c(=O)n(C)c2cnc3ccc(-c4cncnc4)cc3c21 [Example 26, 1-(1,3-Dimethyl-1H-pyrazol-4-yl)-3-methyl-8-pyrimidin-5-yl-1,3-dihydro-imidazo[4,5-c]quinolin-2-one]"
4,197,"CCOc1cccc(-c2ccc3ncc4c(c3c2)n(-c2cn(C)nc2C)c(=O)n4C)c1 [Example 57, 1-(1,3-Dimethyl-1H-pyrazol-4-yl)-8-(3-ethoxy-phenyl)-3-methyl-1,3-dihydro-imidazo[4,5-c]quinolin-2-one]"
5,582,"CCn1cc(-n2c(=O)n(C)c3cnc4ccc(-c5ccc(COC)nc5)cc4c32)c(C)n1 [Example 104, 1-(1-Ethyl-3-methyl-1H-pyrazol-4-yl)-8-(6-methoxymethyl-pyridin-3-yl)-3-methyl-1,3-dihydro-imidazo[4,5-c]quinolin-2-one]"
6,206,"COc1ccc(-c2ccc3ncc4c(c3c2)n(-c2cnn(C)c2C)c(=O)n4C)cn1 [Example 2.9, 1-(1,5-Dimethyl-1H-pyrazol-4-yl)-8-(6-methoxy-pyridin-3-yl)-3-methyl-1,3-dihydro-imidazo[4,5-c]quinolin-2-one]"
7,82,"Cc1nn(C)cc1-n1c(=O)n(C)c2cnc3ccc(-c4cc(O)cc(C(F)(F)F)c4)cc3c21 [Example 34, 1-(1,3-Dimethyl-1H-pyrazol-4-yl)-8-(3-hydroxy-5-trifluoromethyl-phenyl)-3-methyl-1,3-dihydro-imidazo[4,5-c]quinolin-2-one]"
8,529,"CCOc1ccc(-c2ccc3ncc4c(c3c2)n(-c2cn(C)nc2Cl)c(=O)n4C)cn1 [Example 3.8, 1-(3-Chloro-1-methyl-1H-pyrazol-4-yl)-8-(6-ethoxy-pyridin-3-yl)-3-methyl-1,3-dihydro-imidazo[4,5-c]quinolin-2-one]"
9,225,"Cc1nn(C)cc1-n1c(=O)n(C)c2cnc3ccc(-c4cccc(N(C)S(C)(=O)=O)c4)cc3c21 [Example 117, N-{3-[1-(1,3-Dimethyl-1H-pyrazol-4-yl)-3-methyl-2-oxo-2,3-dihydro-1H-imidazo[4,5-c]quinolin-8-yl]-phenyl}-N-methyl-methanesulfonamide]"
10,118,"Cc1nn(C)cc1-n1c(=O)n(C)c2cnc3ccc(-c4cnc5[nH]ccc5c4)cc3c21 [Example 36, 1-(1,3-dimethyl-1H-pyrazol-4-yl)-3-methyl-8-(1H-pyrrolo[2,3-b]pyridin-5-yl)-1,3-dihydro-imidazo[4,5-c]quinolin-2-one]"
11,246,"COc1ccc(-c2ccc3ncc4c(c3c2)n(-c2cn(CC(=O)N(C)C)nc2C)c(=O)n4C)cn1 [Example 102, 2-{4-[8-(6-Methoxy-pyridin-3-yl)-3-methyl-2-oxo-2,3-dihydro-imidazo[4,5-c]quinolin-1-yl]-3-methyl-pyrazol-1-yl}-N,N-dimethyl-acetamide]"
12,164,"CNc1ccc(-c2ccc3ncc4c(c3c2)n(-c2cn(C(C)C)nc2C)c(=O)n4C)cn1 [Example 118.1, 1-(1-isopropyl-3-methyl-1H-pyrazol-4-yl)-3-methyl-8-(6-methylamino-pyridin-3-yl)-1,3-dihydro-imidazo[4,5-c]quinolin-2-one]"
13,182,"Cc1nn(C(C)C)cc1-n1c(=O)n(C)c2cnc3ccc(-c4cnc(N(C)C)nc4)cc3c21 [Example 6.1, 8-(2-Dimethylamino-pyrimidin-5-yl)-1-(1-isopropyl-3-methyl-1H-pyrazol-4-yl)-3-methyl-1,3-dihydro-imidazo[4,5-c]quinolin-2-one]"
14,590,"Cc1nn(C)cc1-n1c(=O)n(C)c2cnc3ccc(-c4ccc(OCC5CC5)nc4)cc3c21 [Example 42, 8-(6-Cyclopropylmethoxy-pyridin-3-yl)-1-(1,3-dimethyl-1H-pyrazol-4-yl)-3-methyl-1,3-dihydro-imidazo[4,5-c]quinolin-2-one]"
15,129,"Cc1nn(C)cc1-n1c(=O)n(C)c2cnc3ccc(-c4cccnc4)cc3c21 [Example 10.2, 1-(1,3-Dimethyl-1H-pyrazol-4-yl)-3-methyl-8-pyridin-3-yl-1,3-dihydro-imidazo[4,5-c]quinolin-2-one]"
16,100,"COc1ccc(-c2ccc3ncc4c(c3c2)n(-c2c(C)nn(C)c2C)c(=O)n4C)cc1OC [Example 1.9, 8-(3,4-Dimethoxy-phenyl)-3-methyl-1-(1,3,5-trimethyl-1H-pyrazol-4-yl)-1,3-dihydro-imidazo[4,5-c]quinolin-2-one]"
17,415,"CCn1cc(-n2c(=O)n(C)c3cnc4ccc(-c5ccc(CO)nc5)cc4c32)c(C)n1 [Example 16.1, 1-(1-ethyl-3-methyl-1H-pyrazol-4-yl)-8-(6-hydroxymethyl-pyridin-3-yl)-3-methyl-1,3-dihydro-imidazo[4,5-c]quinolin-2-one]"
18,138,"CNc1ccc(-c2ccc3ncc4c(c3c2)n(-c2cn(CC(=O)N(C)C)nc2C)c(=O)n4C)cn1 [Example 118.3, N,N-Dimethyl-2-{3-methyl-4-[3-methyl-8-(6-methylamino-pyridin-3-yl)-2-oxo-2,3-dihydro-imidazo[4,5-c]quinolin-1-yl]-pyrazol-1-yl}-acetamide]"
19,334,"Cc1nn(C)cc1-n1c(=O)n(C)c2cnc3ccc(-c4ccc5c(c4)CCN5C)cc3c21 [Example 50, 1-(1,3-Dimethyl-1H-pyrazol-4-yl)-3-methyl-8-(1-methyl-2,3-dihydro-1H-indol-5-yl)-1,3-dihydro-imidazo[4,5-c]quinolin-2-one]"
20,114,"CNC(=O)c1ccc(-c2ccc3ncc4c(c3c2)n(-c2cn(C)nc2Cl)c(=O)n4C)cc1 [Example 43.2, 4-[1-(3-Chloro-1-methyl-1H-pyrazol-4-yl)-3-methyl-2-oxo-2,3-dihydro-1H-imidazol[4,5-c]quinolin-8-yl]-N-methyl-benzamide]"
21,343,"CCCOc1ccc(-c2ccc3ncc4c(c3c2)n(-c2cn(C)nc2C)c(=O)n4C)cn1 [Example 55, 1-(1,3-Dimethyl-1H-pyrazol-4-yl)-3-methyl-8-(6-propoxy-pyridin-3-yl)-1,3-dihydro-imidazo[4,5-c]quinolin-2-one]"
22,341,"Cc1c(-n2c(=O)n(C)c3cnc4ccc(-c5ccc(N(C)C)nc5)cc4c32)cnn1C [Example 4.4, 8-(6-Dimethylamino-pyridin-3-yl)-1-(1,5-dimethyl-1H-pyrazol-4-yl)-3-methyl-1,3-dihydro-imidazo[4,5-c]quinolin-2-one]"

# Tested on: not listed separately
# Assay: Cellular CaCo2 permeability assay from apical to basal (A-B)
# Format: in vitro ADME
# Conditions: human, Caco-2, read-out: Pe A-B (permeability)
# Source text: The permeability in 10^−6 cm/s of compounds of formula (I) have been confirmed for selected example using a cellular CaCo2 permeability assay from apical to basal (A-B): […]
row,Papp A→B [×10⁻⁶ cm/s],SMILES
1,20.5,"CCn1cc(-n2c(=O)n(C)c3cnc4ccc(-c5ccc(COC)nc5)cc4c32)c(C)n1 [Example 104, 1-(1-Ethyl-3-methyl-1H-pyrazol-4-yl)-8-(6-methoxymethyl-pyridin-3-yl)-3-methyl-1,3-dihydro-imidazo[4,5-c]quinolin-2-one]"
2,6,"Cc1nn(C)cc1-n1c(=O)n(C)c2cnc3ccc(-c4ccc(N5CCN(C)CC5)nc4)cc3c21 [Example 96, 1-(1,3-Dimethyl-1H-pyrazol-4-yl)-3-methyl-8-[6-(4-methyl-piperazin-1-yl)-pyridin-3-yl]-1,3-dihydro-imidazo[4,5-c]quinolin-2-one]"
3,17,"CCNc1cc(-c2ccc3ncc4c(c3c2)n(-c2cn(C)nc2C)c(=O)n4C)cnc1C [Example 87.1, 1-(1,3-Dimethyl-1H-pyrazol-4-yl)-8-(5-ethylamino-6-methyl-pyridin-3-yl)-3-methyl-1,3-dihydro-imidazo[4,5-c]quinolin-2-one]"
4,7.7,"COc1ccc(-c2ccc3ncc4c(c3c2)n(-c2cn(CC(=O)N(C)C)nc2C)c(=O)n4C)cn1 [Example 102, 2-{4-[8-(6-Methoxy-pyridin-3-yl)-3-methyl-2-oxo-2,3-dihydro-imidazo[4,5-c]quinolin-1-yl]-3-methyl-pyrazol-1-yl}-N,N-dimethyl-acetamide]"
